# Measured values: ChEMBL document CHEMBL4130375, “Design, synthesis and biological evaluation of 4-amidobenzimidazole acridine derivatives as dual PARP and Topo inhibitors for cancer therapy” (Eur J Med Chem, 2017)
# Calls of active or inactive are those of the source. No cut-off for these calls is given here.
# Legend:
# HCT-116 [1] = experiment: Antiproliferative activity against human HCT116 cells expressing topoisomerase-1 after 72 hrs by MTT assay; format: functional, cell-based; conditions: HCT-116, 72 h
# HCC1937 [2] = experiment: Potency index, ratio of m-AMSA IC50 to compound IC50 for human HCC1937 cells harboring BRCA1 mutant; format: functional
# HCC1937 [3] = experiment: Potency index, ratio of olaparib IC50 to compound IC50 for human HCC1937 cells harboring BRCA1 mutant; format: functional
# HCT-116 [4] = experiment: Potency index, ratio of m-AMSA IC50 to compound IC50 for human HCT116 cells expressing topoisomerase-1; format: functional
# [5] = target: T1, DNA topoisomerase 1 (Homo sapiens) (UniProt P11387); experiment: Inhibition of human topoisomerase-1 at 2 to 100 uM using supercoiled pBR322 DNA as substrate after 10 to 15 mins by ethidium bromide staining based electrophoresis method
# T1 sequence (whole entry): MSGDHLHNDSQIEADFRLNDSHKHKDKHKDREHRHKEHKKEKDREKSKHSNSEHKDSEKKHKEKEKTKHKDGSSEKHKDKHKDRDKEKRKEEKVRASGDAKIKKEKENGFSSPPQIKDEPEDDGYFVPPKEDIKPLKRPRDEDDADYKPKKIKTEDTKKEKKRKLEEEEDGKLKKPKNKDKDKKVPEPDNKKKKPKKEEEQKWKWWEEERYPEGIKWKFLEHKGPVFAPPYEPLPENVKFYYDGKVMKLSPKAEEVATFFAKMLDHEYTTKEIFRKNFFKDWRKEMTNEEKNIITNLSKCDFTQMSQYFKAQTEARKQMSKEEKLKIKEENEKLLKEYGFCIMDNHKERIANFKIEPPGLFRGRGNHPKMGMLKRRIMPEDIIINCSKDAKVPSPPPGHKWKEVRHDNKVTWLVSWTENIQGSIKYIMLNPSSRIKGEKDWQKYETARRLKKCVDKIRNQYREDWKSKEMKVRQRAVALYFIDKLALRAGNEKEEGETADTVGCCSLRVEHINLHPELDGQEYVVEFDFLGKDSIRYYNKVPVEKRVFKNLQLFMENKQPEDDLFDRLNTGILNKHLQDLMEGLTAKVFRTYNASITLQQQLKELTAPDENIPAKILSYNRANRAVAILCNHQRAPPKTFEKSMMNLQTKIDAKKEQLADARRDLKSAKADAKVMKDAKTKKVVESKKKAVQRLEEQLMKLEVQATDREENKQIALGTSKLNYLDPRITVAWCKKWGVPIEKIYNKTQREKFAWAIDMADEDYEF
# [6] = target: T1, DNA topoisomerase 1 (Homo sapiens); experiment: Inhibition of topoisomerase-1 in human MCF7 cells assessed as enzyme-DNA cleavage complex formation by measuring decrease in topoisomerase-1 protein expression after 24 hrs by Western blot analysis; format: cell-based
# MCF7 [7] = experiment: Induction of DNA double strand breaks in human MCF7 cells assessed as increase in 53BP1 level after 24 hrs by Western blot analysis; format: functional, cell-based
# MCF7 [8] = experiment: Induction of apoptosis in human MCF7 cells assessed as live cells at 1 uM after 48 hrs by Annexin V-FITC/propidium iodide staining based flow cytometry (reference value: 99.9%); format: functional
# MCF7 [9] = experiment: Induction of apoptosis in human MCF7 cells assessed as late apoptotic cells at 1 uM after 48 hrs by Annexin V-FITC/propidium iodide staining based flow cytometry (reference value: 0%); format: functional
# MCF7 [10] = experiment: Induction of apoptosis in human MCF7 cells assessed as necrotic cells at 1 uM after 48 hrs by Annexin V-FITC/propidium iodide staining based flow cytometry (reference value: 0%); format: functional
# MCF7 [11] = experiment: Induction of apoptosis in human MCF7 cells assessed as early apoptotic cells at 5 uM after 48 hrs by Annexin V-FITC/propidium iodide staining based flow cytometry (reference value: 0.108%); format: functional
# MCF7 [12] = experiment: Induction of apoptosis in human MCF7 cells assessed as necrotic cells at 5 uM after 48 hrs by Annexin V-FITC/propidium iodide staining based flow cytometry (reference value: 0%); format: functional
# MCF7 [13] = experiment: Upregulation of cleaved caspase-3 protein expression in human MCF7 cells after 24 hrs by Western blot method; format: functional, cell-based
# MCF7 [14] = experiment: Upregulation of cleaved PARP protein expression in human MCF7 cells after 24 hrs by Western blot method; format: functional, cell-based
# MCF7 [15] = experiment: Upregulation of cleaved caspase-9 protein expression in human MCF7 cells after 24 hrs by Western blot method; format: functional, cell-based
# MCF7 [16] = experiment: Cell cycle arrest in human MCF7 cells assessed as accumulation at G0/G1 phase at 1 uM after 24 hrs by propidium iodide staining based flow cytometry (reference value: 17.67 +/- 1.25%); format: functional
# MCF7 [17] = experiment: Cell cycle arrest in human MCF7 cells assessed as accumulation at G2/M phase at 1 uM after 24 hrs by propidium iodide staining based flow cytometry (reference value: 22.61 +/- 1.55%); format: functional
# MCF7 [18] = experiment: Cell cycle arrest in human MCF7 cells assessed as accumulation at G0/G1 phase at 5 uM after 24 hrs by propidium iodide staining based flow cytometry (reference value: 17.67 +/- 1.25%); format: functional
# MCF7 [19] = experiment: Cell cycle arrest in human MCF7 cells assessed as accumulation at G2/M phase at 5 uM after 24 hrs by propidium iodide staining based flow cytometry (reference value: 22.61 +/- 1.55%); format: functional
# MCF7 [20] = experiment: Cell cycle arrest in human MCF7 cells assessed as accumulation at G0/G1 phase at 10 uM after 24 hrs by propidium iodide staining based flow cytometry (reference value: 17.67 +/- 1.25%); format: functional
# MCF7 [21] = experiment: Cell cycle arrest in human MCF7 cells assessed as accumulation at S phase at 10 uM after 24 hrs by propidium iodide staining based flow cytometry (reference value: 59.72 +/- 2.98%); format: functional
# MCF7 [22] = experiment: Upregulation of p18 protein expression in human MCF7 cells after 24 hrs by Western blot method; format: functional, cell-based
# MCF7 [23] = experiment: Upregulation of p27 protein expression in human MCF7 cells after 24 hrs by Western blot method; format: functional, cell-based
# MCF7 [24] = experiment: Downregulation of CDK4 protein expression in human MCF7 cells up to 10 uM after 24 hrs by Western blot method; format: functional, cell-based
# [25] = Half life in human liver microsomes at 1.11 uM preincubated for 5 mins followed by NADPH addition by LC-MS/MS analysis; format: ADME, microsome
# [26] = Intrinsic clearance in human liver microsomes at 1.11 uM preincubated for 5 mins followed by NADPH addition by LC-MS/MS analysis; format: ADME, microsome; conditions: read-out: CLH
# [27] = Half life in rat liver microsomes at 1.11 uM preincubated for 5 mins followed by NADPH addition by LC-MS/MS analysis; format: ADME, microsome
# Cytochrome P450 3A4 = Cytochrome P450 3A4 (Homo sapiens, UniProt P08684); experiment: Inhibition of CYP3A4 in human liver microsomes preincubated for 10 mins followed by NADPH/substrate addition measured after 20 mins by LC-MS/MS analysis
# Cytochrome P450 2C19 = Cytochrome P450 2C19 (Homo sapiens, UniProt P33261); experiment: Inhibition of CYP2C19 in human liver microsomes preincubated for 10 mins followed by NADPH/substrate addition measured after 20 mins by LC-MS/MS analysis
# Chain of Cytochrome P450 2C19 (P33261 whole entry): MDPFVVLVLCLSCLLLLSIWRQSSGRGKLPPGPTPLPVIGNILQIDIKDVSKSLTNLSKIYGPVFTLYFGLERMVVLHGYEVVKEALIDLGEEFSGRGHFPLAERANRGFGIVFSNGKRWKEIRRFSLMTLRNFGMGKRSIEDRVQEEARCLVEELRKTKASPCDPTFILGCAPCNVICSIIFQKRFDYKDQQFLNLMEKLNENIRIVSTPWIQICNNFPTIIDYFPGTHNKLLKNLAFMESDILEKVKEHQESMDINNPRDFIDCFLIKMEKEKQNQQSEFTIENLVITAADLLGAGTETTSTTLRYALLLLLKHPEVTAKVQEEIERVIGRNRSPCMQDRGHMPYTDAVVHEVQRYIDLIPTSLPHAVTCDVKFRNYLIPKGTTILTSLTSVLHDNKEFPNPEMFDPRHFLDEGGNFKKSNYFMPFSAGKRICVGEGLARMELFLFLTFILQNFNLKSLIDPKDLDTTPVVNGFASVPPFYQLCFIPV
# Chain of Cytochrome P450 3A4 (P08684 whole entry): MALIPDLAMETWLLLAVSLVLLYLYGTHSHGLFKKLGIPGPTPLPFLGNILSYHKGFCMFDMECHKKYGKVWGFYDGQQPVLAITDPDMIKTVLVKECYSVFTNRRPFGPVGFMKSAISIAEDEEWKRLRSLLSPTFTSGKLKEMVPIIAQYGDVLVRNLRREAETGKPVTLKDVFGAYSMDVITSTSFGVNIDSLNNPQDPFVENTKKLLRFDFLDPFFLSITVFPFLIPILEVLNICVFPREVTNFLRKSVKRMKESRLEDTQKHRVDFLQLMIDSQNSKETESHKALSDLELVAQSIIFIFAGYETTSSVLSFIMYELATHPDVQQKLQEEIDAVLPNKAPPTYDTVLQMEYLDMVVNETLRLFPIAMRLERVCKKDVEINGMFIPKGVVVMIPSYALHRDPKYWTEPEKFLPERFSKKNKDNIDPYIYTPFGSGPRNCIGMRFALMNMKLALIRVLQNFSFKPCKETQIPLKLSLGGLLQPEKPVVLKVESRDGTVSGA
smiles,measurement,setting,value
Cc1cccc2c(Nc3cccc(-c4nc5c(C(N)=O)cccc5[nH]4)c3)c3ccccc3nc12,IC50,HCT-116 [1],1.43 µM
same,Ratio IC50,HCC1937 [2],9.5
same,Ratio IC50,HCC1937 [3],6
same,Ratio IC50,HCT-116 [4],2.7
same,inhibition,[5],Active
same,inhibition,[6],Dose-dependent effect
same,Activity,MCF7 [7],Dose-dependent effect
same,Activity,MCF7 [8],42.9%
same,Activity,MCF7 [9],22.2%
same,Activity,MCF7 [10],0.531%
same,Activity,MCF7 [11],23.9%
same,Activity,MCF7 [12],0.641%
same,Activity,MCF7 [13],Dose-dependent effect
same,Activity,MCF7 [14],Dose-dependent effect
same,Activity,MCF7 [15],Dose-dependent effect
same,Activity,MCF7 [16],19.96%
same,Activity,MCF7 [17],21.76%
same,Activity,MCF7 [18],43.62%
same,Activity,MCF7 [19],14.08%
same,Activity,MCF7 [20],58.27%
same,Activity,MCF7 [21],30.87%
same,Activity,MCF7 [22],Dose-dependent effect
same,Activity,MCF7 [23],Dose-dependent effect
same,Activity,MCF7 [24],Active
same,half-life at 1.11 µM,[25],27.8 min
same,microsomal CLint at 1.11 µM,[26],35.6 µL/min/mg
same,half-life at 1.11 µM,[27],34.8 min
same,IC50,Cytochrome P450 3A4,6.8 µM
same,IC50,Cytochrome P450 2C19,> 10 µM
